Assays:
[1] = Particle size, PDI and ζ-potential of mRNA-LNP (Zetasizer Nano ZS); assay type: physicochemical; conditions: mRNA-LNP formulation phospholipid:CL4F6:Chol:PEG-DMG 10:50:40:1.0, Fluc mRNA
Experimental: (§1) Ethanol solutions containing each phospholipid, CL4F6, Chol, and PEG2000-dimirystoylglycerol (PEG-DMG) at the molar ratio of 10:50:40:1.0 were prepared at the total lipid concentration of 16 mM. For fluorescent labeling of LNPs, 0.5 mol% of DiI or DiR was added to the above solutions. The firefly luciferase (Fluc)-encoding mRNA (TriLink) was dissolved in a 25 mM acetate buffer (pH 4.0). LNPs were prepared by mixing the lipids in ethanol and RNA in an aqueous solution using an iLiNP device at a total flow rate (TFR) of 0.5 mL/min and a flow rate ratio (FRR) (RNA flow rate/lipid flow rate) of 3. The nitrogen to phosphate (N/P) ratio was adjusted to 6. Syringe pumps (Harvard apparatus) were used to control the flow rate of the solutions. The resulting LNP solutions were then dialyzed for 2 hours or more at 4 °C against phosphate buffered saline without Ca^2+ and Mg^2+ (PBS(-)) using Spectra/Por 4 dialysis membranes (molecular weight cut-off 12,000-14,000 Da, Spectrum Laboratories). The LNP solutions were concentrated by ultrafiltration using an Amicon Ultra-15 unit (MWCO 100 kDa, Millipore) as needed.
(§2) The ζ-average particle size, polydispersity index (PDI), and ζ-potential of the LNPs were measured by means of a Zetasizer Nano ZS ZEN3600 instrument (Malvern Instruments). The encapsulation efficiency and total concentration of mRNA were measured by a Ribogreen assay according to a conventional method.

[2] = Ribogreen assay, mRNA encapsulation efficiency of LNP; assay type: physicochemical; conditions: mRNA-LNP formulation phospholipid:CL4F6:Chol:PEG-DMG 10:50:40:1.0, Fluc mRNA
Experimental: as §1, §2

[3] = Lipid polymorphism by 31P NMR method (mixtures with POPC); assay type: physicochemical; conditions: lipid:POPC molar ratio 1:1, 20 mM HEPES pH 7.4, room temperature
Experimental: In order to examine the interaction between DOPE-Cx and PC and characteristics thereof, lipid polymorphism of the lipid suspension was evaluated by a ^31P NMR method. Since the rotational motion of lipid molecules in a lamellar phase which is a planar structure and a (inverted) hexagonal phase which is a tubular structure receives different restrictions respectively, a specific ^31P NMR spectrum is provided by chemical shift anisotropy. Specifically, the lamellar phase produces a broad […] peak, and the (inverted) hexagonal phase produces a broad […] peak.
First, DOPE or DOPE-C8 and 1-palmitoyl-2-oleoyl-sn-glycero-3-phosphocholine (POPC) were mixed at a predetermined ratio in 400 µL of chloroform (total lipid 16 µmol), and the solvent was removed by a rotary evaporator to form a lipid membrane. The lipid membrane was hydrated with 500 µL of 20 mM HEPES buffer (pH 7.4, 130 mM NaCl) at 60°C. Then, the lipid dispersion was transferred to an NMR tube, and a ^31P NMR spectrum at room temperature was measured by a conventional method using an ECX 400P spectrometer (JEOL Ltd.).

liver = test: mRNA introduction ability: luciferase activity in the liver after intravenous Fluc mRNA-LNP; assay type: in vivo, BALB/c mice; conditions: Figs. 3 and 4, LNP containing the phospholipid, 0.01 mg RNA/kg, livers collected 6 hours later
Experimental: as §1, with “The resulting LNP solutions were then dialyzed for 2 hours or more at 4 °C against phosphate buffered saline without Ca^2+ and Mg^2+ (PBS(-)) using Spectra/Por 4 dialysis membranes (molecular weight cut-off 12,000-14,000 Da, Spectrum Laboratories). The LNP solutions were concentrated by ultrafiltration using an Amicon Ultra-15 unit (MWCO 100 kDa, Millipore) as needed.” left out
The mRNA-LNP formulations prepared in the above item (2) were intravenously administered to BALB/c mice at a dose of 0.01 mg RNA/kg, and the livers were collected by a conventional method 6 hours later. […] The supernatant was collected, and […] was measured by a luminometer (Luminescencer-PSN, ATTO Corporation) using Luciferase Assay System (Promega). The protein concentration was determined using a BCA protein assay kit (Pierce). Fluc activity was expressed as relative light units (RLU) per 1 mg of protein.

SMILES | Number average particle size (nm) ([1]; Table 2) | PDI ([1]; Table 2) | ζ-average particle size (nm) ([1]; Table 2) | ζ-potential (mV) ([1]; Table 2) | mRNA encapsulation rate % ([2]; Table 2) | lipid phase by 31P NMR spectrum [3] | Number average particle size (nm) ([1]; Table 1) | PDI ([1]; Table 1) | ζ-potential (mV) ([1]; Table 1) | ζ-average particle size (nm) ([1]; Table 1, N/P 6) | mRNA encapsulation rate % ([2]; Table 1) | further results
CCCCCCCC/C=C\CCCCCCCC(=O)OC[C@H](COP(=O)(O)OCCNCCC(=O)OCC(CCC)CCCCC)OC(=O)CCCCCCC/C=C\CCCCCCCC (stereo partly drawn) [DOPE-C7_β3, (R)-2,3-bis(oleoyloxy)propyl (2-((3-oxo-3-((2-propylheptyl)oxy)propyl)ammonio)ethyl) phosphate] | 61 nm | 0.08 | 79 nm | -9.6 mV | 96.0% | the ratio derived from the inverted hexagonal phase increased | – | – | – | – | – | –
CCCCCCCC/C=C\CCCCCCCC(=O)OC[C@H](COP(=O)(O)OCCNCCC(=O)OCC(C)CCC)OC(=O)CCCCCCC/C=C\CCCCCCCC (stereo partly drawn) [DOPE-C5_β1, (R)-2,3-bis(oleoyloxy)propyl (2-((3-((2-methylpentyl)oxy)-3-oxopropyl)ammonio)ethyl) phosphate] | 60 nm | 0.21 | 94 nm | -6.4 mV | 95.9% | – | – | – | – | – | – | –
CCCCCCCC/C=C\CCCCCCCC(=O)OC[C@H](COP(=O)(O)OCCNCCC(=O)OC(CCC)CCC)OC(=O)CCCCCCC/C=C\CCCCCCCC [DOPE-C4_α3, (R)-2,3-bis(oleoyloxy)propyl (2-((3-(heptan-4-yloxy)-3-oxopropyl)ammonio)ethyl) phosphate] | – | – | – | – | – | – | – | – | – | – | – | Number average particle size (nm) ([1]; Table 3): 52 nm; PDI ([1]; Table 3): 0.21; ζ-average particle size (nm) ([1]; Table 3): 91 nm; ζ-potential (mV) ([1]; Table 3): -12.0 mV; mRNA encapsulation rate % ([2]; Table 3): 97.1%
CCCCCCCC/C=C\CCCCCCCC(=O)OC[C@H](COP(=O)(O)OCCNCCC(=O)OCCCC)OC(=O)CCCCCCC/C=C\CCCCCCCC [DOPE-C4, (R)-2,3-bis(oleoyloxy)propyl (2-((3-butoxy-3-oxopropyl)ammonio)ethyl) phosphate] | – | – | – | – | – | – | 58 nm | 0.17 | -5.0 mV | 87 nm | 91.2% | –
CCCCCCCC/C=C\CCCCCCCC(=O)OC[C@H](COP(=O)(O)OCCNCCC(=O)OCCCCCC)OC(=O)CCCCCCC/C=C\CCCCCCCC [DOPE-C6, (R)-2,3-bis(oleoyloxy)propyl (2-((3-(hexyloxy)-3-oxopropyl)ammonio)ethyl) phosphate] | – | – | – | – | – | – | 59 nm | 0.15 | -1.4 mV | 86 nm | 91.5% | –
CCCCCCCC/C=C\CCCCCCCC(=O)OC[C@H](COP(=O)(O)OCCNCCC(=O)OCCC(C)CCC=C(C)C)OC(=O)CCCCCCC/C=C\CCCCCCCC (stereo partly drawn) [DOPE-Cit, (R)-2,3-bis(oleoyloxy)propyl (2-((3-((3,7-dimethyloct-6-en-1-yl)oxy)-3-oxopropyl)ammonio)ethyl) phosphate] | 65 nm | 0.07 | 85 nm | -6.1 mV | 95.9% | – | – | – | – | – | – | –
CCCCCCCC/C=C\CCCCCCCC(=O)OC[C@H](COP(=O)(O)OCCNCCC(=O)OC(CC)CC)OC(=O)CCCCCCC/C=C\CCCCCCCC [DOPE-C3_α2, (R)-2,3-bis(oleoyloxy)propyl (2-((3-oxo-3-(pentan-3-yloxy)propyl)ammonio)ethyl) phosphate] | – | – | – | – | – | – | – | – | – | – | – | Number average particle size (nm) ([1]; Table 3): 54 nm; PDI ([1]; Table 3): 0.20; ζ-average particle size (nm) ([1]; Table 3): 91 nm; ζ-potential (mV) ([1]; Table 3): -10.5 mV; mRNA encapsulation rate % ([2]; Table 3): 97.2%
CCCCCCCC/C=C\CCCCCCCC(=O)OC[C@H](COP(=O)(O)OCCNCCC(=O)OCC(CC)CCCC)OC(=O)CCCCCCC/C=C\CCCCCCCC (stereo partly drawn) [DOPE-C6_β2, (R)-2,3-bis(oleoyloxy)propyl (2-((3-((2-ethylhexyl)oxy)-3-oxopropyl)ammonio)ethyl) phosphate] | 73 nm | 0.07 | 94 nm | -5.0 mV | 95.7% | – | – | – | – | – | – | luciferase activity in the liver (liver): highest activity
CCCCCCCC/C=C\CCCCCCCC(=O)OC[C@H](COP(=O)(O)OCCNCCC(=O)OCCCCCCCCCC)OC(=O)CCCCCCC/C=C\CCCCCCCC [DOPE-C10, (R)-2,3-bis(oleoyloxy)propyl (2-((3-(decyloxy)-3-oxopropyl)ammonio)ethyl) phosphate] | – | – | – | – | – | the ratio derived from the inverted hexagonal phase increased | 48 nm | 0.18 | -7.0 mV | 82 nm | 93.1% | –
CCCCCCCCCCCCCCCCCC(=O)OC[C@H](COP(=O)([O-])OCC[N+](C)(C)C)OC(=O)CCCCCCCCCCCCCCCCC [DSPC, 1,2-Distearoyl-sn-glycero-3-phosphocholine, reference compound] | – | – | – | – | – | – | 56 nm | 0.08 | -3.6 mV | 75 nm | 95.7% | –
CCCCCCCC/C=C\CCCCCCCCOC(=O)CCNCCOP(=O)(O)OC[C@@H](COC(=O)CCCCCCC/C=C\CCCCCCCC)OC(=O)CCCCCCC/C=C\CCCCCCCC [DOPE-C18:1, (R)-2,3-bis(oleoyloxy)propyl (2-((3-(((Z)-octadeca-9-ene-1-yl)oxy)-3-oxopropyl)ammonio)ethyl) phosphate] | – | – | – | – | – | the ratio derived from the inverted hexagonal phase increased | 56 nm | 0.18 | -2.9 mV | 81 nm | 93.9% | –
CCCCCCCC/C=C\CCCCCCCC(=O)OC[C@H](COP(=O)(O)OCCNCCC(=O)OCCCCCCCCCCCC)OC(=O)CCCCCCC/C=C\CCCCCCCC [DOPE-C12, (R)-2,3-bis(oleoyloxy)propyl (2-((3-(dodecyloxy)-3-oxopropyl)ammonio)ethyl) phosphate] | – | – | – | – | – | the ratio derived from the inverted hexagonal phase increased | 59 nm | 0.25 | -6.3 mV | 100 nm | 94.2% | –
CCCCCCCC/C=C\CCCCCCCC(=O)OC[C@H](COP(=O)(O)OCCNCCC(=O)OCC(CCCC)CCCCCC)OC(=O)CCCCCCC/C=C\CCCCCCCC (stereo partly drawn) [DOPE-C8_β4, (R)-2,3-bis(oleoyloxy)propyl (2-((3-((2-butyloctyl)oxy)-3-oxopropyl)ammonio)ethyl) phosphate] | 71 nm | 0.21 | 112 nm | -5.8 mV | 96.3% | the ratio derived from the inverted hexagonal phase increased | – | – | – | – | – | –

From patent publication EP4796551A1, “ZWITTERIONIC PHOSPHOLIPID COMPOUND AND LIPID NANOPARTICLE CONTAINING THE SAME” (National University Corporation Hokkaido University, priority 2023, dated 2025)
